In data set [1] the test system is HEK293. Description: Cytotoxicity against human HEK293 cells after 48 hrs by MTT assay. The settings on record: HEK293, 48 h, read-out: LC50 (the source's name). It is filed as functional.
Data set [2] in a line: Cytotoxicity against african green monkey Vero cells after 24 hrs by MTT assay. In kind it is cell-based. The settings on record: chlorocebus sabaeus, read-out: LC50. For orientation: Tetrazolium assays rely on reduction of a dye to a coloured formazan, in cell work by metabolically active cells.
Data set [3] has as its system HEK293. Description: Cytotoxicity against human HEK293 cells after 24 hrs by MTT assay. It is filed as functional. The settings on record: HEK293, 24 h, read-out: LC50 (the source's name).
Data set [4] is described as follows: Cytotoxicity against african green monkey Vero cells after 48 hrs by MTT assay. It is filed as cell-based. The settings on record: chlorocebus sabaeus, read-out: LC50.
Data set [5] can be described thus: Cytotoxicity against african green monkey Vero cells after 72 hrs by MTT assay. It is filed as cell-based. As to conditions: chlorocebus sabaeus, read-out: LC50.
Data set [6] has as its system HEK293. The data set can be described thus: Cytotoxicity against human HEK293 cells after 72 hrs by MTT assay. The settings on record: HEK293, 72 h, read-out: LC50 (the source's name). It is filed as functional.
Data set [7] relates to HEK293. Description: Induction of apoptosis in human HEK293 cells assessed as punchate nuclei at LC50 after 48 hrs using DAPI staining method. In kind it is functional, cell-based.
Data set [8] has as its system HEK293. The data set can be described thus: Induction of apoptosis in human HEK293 cells assessed as bubble shape nuclei at LC50 after 48 hrs using DAPI staining method. It is filed as functional, cell-based.
Data set [9] deals with HEK293. Description: Induction of apoptosis in human HEK293 cells assessed as shrinkage of nuclei at LC50 after 48 hrs using DAPI staining method. In kind it is functional, cell-based.
Data set [10] deals with HEK293. Description: Cell cycle arrest in human HEK293 cells assessed as accumulation at G0 phase at LC50 after 48 hrs by propidium iodide staining based FACS analysis (reference value: 3.5 %). In kind it is functional. (In flow cytometry, cells or beads pass a laser one at a time.)
Data set [11] has as its system HEK293. The data set can be described thus: Cell cycle arrest in human HEK293 cells assessed as accumulation at G1 phase at LC50 after 48 hrs by propidium iodide staining based FACS analysis (reference value: 53.56 %). In kind it is functional.
Data set [12] has as its system HEK293. The data set can be described thus: Cell cycle arrest in human HEK293 cells assessed as accumulation at S phase at LC50 after 48 hrs by propidium iodide staining based FACS analysis (reference value: 18.92 %). It is filed as functional.
Data set [13] deals with HEK293. Description: Cell cycle arrest in human HEK293 cells assessed as accumulation at G2/M phase at LC50 after 48 hrs by propidium iodide staining based FACS analysis (reference value: 2.76 %). In kind it is functional.
Data set [14] deals with HEK293. The data set can be described thus: Induction of apoptosis in human HEK293 cells assessed as increase in induction of PARP cleavage after 48 hrs by Western blot analysis. It is filed as functional, cell-based. (In general: A western blot detects proteins with antibodies after separation by electrophoresis.)
The test system of data set [15] is HEK293. Description: Induction of apoptosis in human HEK293 cells assessed as reduction of Bcl-xL level after 48 hrs by Western blot analysis. In kind it is functional, cell-based.
In data set [16] the test system is HEK293. The data set can be described thus: Induction of apoptosis in human HEK293 cells assessed as increase in Bax expression after 48 hrs by Western blot analysis. In kind it is functional, cell-based.
Data set [17] relates to HEK293. Description: Induction of apoptosis in human HEK293 cells assessed as increase in caspase-3 cleavage after 48 hrs by Western blot analysis. It is filed as functional, cell-based.
Data set [18] concerns HEK293. Description: Induction of apoptosis in human HEK293 cells assessed as increase in caspase-3 expression after 48 hrs by immunohistochemistry analysis. In kind it is functional, cell-based.

The source made the active and inactive calls. The calls are words filed in the database; no cut-off is given here. Some results are limits rather than exact numbers.

With `O=c1[nH]cc(F)c(=O)[nH]1` [FLUOROURACIL], in [1], the CC50 came to 25 µM.
For the compound `O=C1c2ccccc2-c2[nH]c3ccccc3c21`, the CC50 at 24 h in data set [2] was determined as 56 µM. The CC50 in data set [3] was 50 µM; in data set [1], 15 µM; in [6], 14 µM. In addition, the CC50 at 48 h in data set [4] is 48 µM. For the same compound, in data set [5], the CC50 at 72 h is 40 µM. Moreover, the outcome in [7], in data set [8], in data set [9], in data set [14], in data set [15] and in data set [16] was Active. For the same compound, the result in data set [17] and in [18] was Active. The Activity is 0.05% in [10], 6.29% in data set [11], 17.35% in data set [12] and 76.44% in [13].
`COc1cc2c(c(OC)c1OC)-c1c(c3ccccc3n1C)C2=O`: the CC50 at 24 h in data set [2] was 42 µM. The CC50 was 39 µM in data set [3], 17 µM in data set [1] and 16 µM in data set [6]. Moreover, in data set [4], the CC50 at 48 h stood at 39 µM. In data set [5], the CC50 at 72 h was 35 µM. Further, the outcome in data set [7], in [8], in data set [9], in data set [14], in [15] and in data set [16] was Active. Moreover, the result in data set [17] and in [18] was Active. The Activity in data set [10] is 0.23%; in [11], 22.98%; in [12], 19.52%; in data set [13], 57.56%.
Consider `COc1cc([C@@H]2c3cc4c(cc3[C@@H](O[C@@H]3O[C@@H]5CO[C@@H](C)O[C@H]5[C@H](O)[C@H]3O)[C@H]3COC(=O)[C@H]23)OCO4)cc(OC)c1O` [ETOPOSIDE], for which, in data set [4], the CC50 at 48 h came out at 18 µM. Also, in data set [1], the CC50 came out at 28 µM.
On to `COc1cc2c(cc1OC)-c1[nH]c3ccccc3c1C2=O`, for which, in [2], the CC50 at 24 h stood at 47 µM. Further, the results for the CC50 in data set [3], in [1] and in data set [6] were 16 µM, 15 µM and 12 µM, respectively. Besides, the CC50 at 48 h in data set [4] was 54 µM. The CC50 at 72 h in [5] came out at 55 µM. For the same compound, the result in data set [7], in data set [8], in data set [9], in [14], in [15] and in data set [16] was Active. In addition, the outcome in [17] and in [18] was Active. In addition, the Activity in [10] is on record as 0.03%; in [11], 3.43%; in data set [12] it was 23.95%; in data set [13] it was 73.31%.
As for `O=C1c2cc(F)ccc2-c2[nH]c3ccccc3c21`, the CC50 at 24 h in [2] is over 100 µM. Further, the CC50 is 18 µM in [3], 22 µM in data set [1] and 15 µM in [6]. Also, in [4], the CC50 at 48 h was over 100 µM. Further, in data set [5], the CC50 at 72 h was found to be 65 µM. Besides, the outcome in data set [7], in data set [8], in [9], in [14], in [15] and in data set [16] was Active. Also, the outcome in data set [17] and in [18] was Active. Moreover, the Activity in [10] was found to be 0.46%; in data set [11], 37.31%; in data set [12], 23.79%; in data set [13] it was 38.9%.
With `O=C1c2ccccc2-c2c1c1ccccc1n2Cc1ccccc1`, the CC50 at 24 h in [2] turned out to be 57 µM. Further, the CC50 in data set [3] was 50 µM; in [1], 17 µM; in data set [6], 16 µM. Further, in [4], the CC50 at 48 h was found to be 53 µM. Also, the CC50 at 72 h in data set [5] stood at 45 µM. In addition, the outcome in [7], in data set [8], in [9], in data set [14], in [15] and in data set [16] was Active. The result in data set [17] and in data set [18] was Active. Further, the Activity in data set [10] amounted to 0.44%; in data set [11], 41.21%; in data set [12] it was 20.19%; in data set [13] it was 38.7%.

(Values after ChEMBL document CHEMBL2010693, “Scaffold hybridization in generation of indenoindolones as anticancer agents that induce apoptosis with cell cycle arrest at G2/M phase” (Bioorg Med Chem Lett, 2012).)
